The numbers were not newly measured in patent publication US9834484B1, “Plant enhancer and a method of using the same” (priority 2016, dated 2017), which cites them from elsewhere.

This data set has as its system tumor growth. The following applies: some studies show.

As for β-glucan, the inhibits tumor growth result is listed as “more than 95%”.
